From US7494780B2, “Epididymis-specific defensin for evaluating and regulating male fertility” (The Chinese University of Hong Kong, priority 2004, dated 2009)

Tested on: Bin1b
Assay: In vivo antisense oligonucleotide treatment, injection into mid-caput epididymis
Set-up: species or system rat
Experimental: Sperm motility analysis. For the motility analysis, we used an HTM-IVOS system (version 10.8, Hamilton-Thorn Research) with the following settings: objective, ×4; minimum cell size, six pixels; minimum contrast, 65; minimum static contrast, 30; low VAP cut-off, 30.0; low VSL cut-off, 20.0; threshold straightness, 50%; static head size, 0.29-10.0; static head intensity, 0.29-1.11; magnification, 0.82. Sixty frames were acquired at a frame rate of 60 Hz. At least 200 tracks were measured for each specimen at 37° C. We recorded at least 30 points for each tract. The playback function of the system was used to check its accuracy.
Flow cytometry analysis. Rat sperm were stained with Bin1b polyclonal antibody at a final concentration of 1:200. In control samples, the antibody was replaced by preimmune serum at the same concentration. After incubation at 4° C. overnight, the sperm were washed twice with PBS containing 4 mg ml^−1 bovine serum albumin and incubated for 45 min at 22° C. with the secondary antibody, fluorescein isothiocyanate (FITC)-conjugated goat antibody against rabbit IgG (Zymed Laboratories) at a dilution of 1:50. After three washes, the sperm were analysed on a flow cytometer (Beckman Coulter). We analyzed 10,000 individual sperm per sample for FITC fluorescence emissions. A negative control of sperm stained by normal rabbit IgG was used to set the threshold for specific Bin1b staining. The percentage of sperm specifically stained for Bin1b was obtained by subtracting background fluorescence.
In vivo antisense oligonucleotide treatment. The skin covering the testis of a male Sprague-Dawley rat (aged >3 months) was cut open under anaesthesia and 30 μl of Bin1b antisense oligonucleotide (5′-[…]-3′; SEQ ID NO:3) or control sense oligonucleotide (5′-[…]-3′; SEQ ID NO:4) solution (20 μg ml^−) was injected into the proximal side of the mid-caput epididymis. The sperm were collected for assessment 48 h after injection. The use of animals in this project was authorized by the Animal Research Ethics Committee of The Chinese University of Hong Kong.

[1] = versus sense oligonucleotide control, 48 h after injection

## 5′-AGAGTAACAAAACCTTCATG-3′ (listed as DNA, chemistry not given here) [antisense Bin1b oligonucleotide]
20 μg ml^−1, versus sense control
  expression of Bin1b messenger RNA in the caput epididymis (semiquantitative RT-PCR): significantly suppressed
Versus sense control
  Bin1b binding to sperm collected in the distal caput region (flow cytometry): considerable reduction
[1]
  motility of sperm from the distal caput epididymis: reduced sperm motility
  progressive movement of sperm from the distal caput epididymis: significantly lower
Versus sense oligonucleotide control, 48 h after injection, listed as Bin1b antisense oligonucleotide
  motility of sperm from the distal caput epididymis: significantly lower
